{
  "source": "patent US20050059626A1",
  "about": "“Methods of preventing and treating viral infections using immunomodulatory polynucleotide sequences” (priority 2000, published 2005)",
  "key": {"RSV A2": {"tested_on": "RSV A2", "experiment": "RSV lung titer in cotton rats after local (intranasal) administration", "format": "in vivo, cotton rat (Sigmoden hispidis)", "conditions": "for RSV titer (log10/g lung) Mean / RSV titer (log10/g lung) in CR No. 1 / RSV titer (log10/g lung) in CR No. 2 / RSV titer (log10/g lung) in CR No. 3 / RSV titer (log10/g lung) in CR No. 4: non-ISS = SEQ ID NO:9", "method": "Cotton rats, 50-100 g and 4-12 weeks old (Sigmoden hispidis) of either sex were used in these studies. All of the animals were descendants of two pair of cotton rats obtained in 1984 from the Small Animal Section of the Veterinary Research Branch, Division of Research Services, National Institutes of Health.\nRSV strain A2 was purchased from the ATCC (ATCC VR26). Working stocks of this virus were prepared as described in detail by Wyde et al. (1995) Pediatr. Res. 38:543-550. ISS sequence tested for RSV experiments was 5′-[…]-3′ (SEQ ID NO:1) (phosphorothioate). Control, non-ISS sequences used were 5′-[…]-3′ (SEQ ID NO:9) (phosphorothioate) and 5′-[…]-3′ (SEQ ID NO:10) (phosphorothioate), as well as PBS.\nRSV levels in virus pools and lung lavage fluids (L.F.) were determined using sterile 96-well, flat bottom tissue culture plates (Falcon 3072), serial 3-fold dilutions and 2% FCS-MEM as described in detail previously (Wyde et al., 1995). […] The amount of virus in virus pools was expressed as a median tissue culture infectious doses (TCID50/ml, log10). Titers of virus in L.F. were expressed as TCID50/g lung tissue (log10). The minimum detectable virus concentration in these assays was 1.3 log10 TCID50/ml (virus pools) or 1.6 log10 TCID50/g lung.\nOn day −3 (i.e., 3 days before infection with virus), 20 cotton rats (CRs) were selected and divided into five groups of four animals. The animals in Group 1 were lightly anesthetized and 50 μL of phosphate buffered saline (PBS) was administered intranasally (IN). The CRs in Group 2 were similarly administered 150 μg of ISS (5′-[…]-3′) (SEQ ID NO:1), while the animals in Group 3 were similarly administered 150 μg of control non-ISS sequence 5′-[…]-3′ (SEQ ID NO:9). Three days later, on Day 0, each of CRs in Group 4 were anesthetized and 150 μg of ISS was administered IN, and the animals in Group 5 were administered, in a like manner, 150 μg of control non-ISS sequence 5′-[…]-3′ (SEQ ID NO:9).\nThirty minutes later, all of the CRs were inoculated IN with 100 median tissue culture infectious doses (TCID50) of RSV A2. Four days later (Day 4), all of the animals were sacrificed and the lungs of each animal were removed, lavaged, and assessed for RSV levels."}, "HSV-2 strain 186": {"tested_on": "HSV-2 strain 186", "experiment": "Vaginal HSV-2 lethal challenge in mice", "format": "in vivo, Swiss Webster mice", "excerpt": "Outbred Swiss Webster mice, vaginally infected with HSV-2 strain 186, were used as a model of HSV infection. In these animals, the first indication of viral infection is hair loss and erythema (HLE) near the vagina occurring, on average, 5 days after inoculation. The next stage of infection is indicated by chronic wetness (CW) due to loss of bladder control, on average, 6 days after inoculation. A portion (about 50% of infected mice) of the animals develop hind limb paralysis (HLP) at approximately the same time point. Death, which is often preceded by evidence of CNS disease, occurs an average of 7-9 days after viral inoculation.\nMice were prepared for infection by an initial two-dose treatment with depopriven to synchronize cycles and to thin the vaginal epithelium. Vaginal mucous was removed by swabbing with calcium alginate, then a lethal challenge dose (determined by titration) of HSV-2 strain 186 was delivered by positive-displacement pipettor. Inoculated mice were randomly grouped into one of 4 treatment groups (n=15/group). Animals in group 1 received no treatment and served as a control for the study. Animals in the second and third groups were treated topically with 100 μg of an ISS-containing phosphorothioate oligonucleotide (5′-[…]-3′) (SEQ ID NO:1) suspended in phosphate-buffered saline (PBS). The groups were treated 2 or 6 hours after inoculation. As a vehicle control, group four was treated with PBS alone.\nIn another experiment, inoculated mice were randomly grouped into 8 treatment groups (n=16/group). Animals in the groups received treatments as outlined in Table 11 below. The groups were treated 2 hours after virus inoculation."}, "HSV-2 strain MS": {"tested_on": "HSV-2 strain MS", "experiment": "Recurrent genital HSV-2 disease in guinea pigs", "format": "in vivo, Swiss Hartley guinea pigs"}, "HSV-2": {"tested_on": "HSV-2", "experiment": "Viral titer from Vero cells pre-treated with oligonucleotide, HSV-2", "format": "cell-based, African Green monkey (Vero cells)", "conditions": "cells infected with HSV-2", "method": "Vero cells, a cell line derived from African Green monkey kidney, were pre-treated with varying concentrations of ISS or non-ISS oligonucleotides for varying times prior to the addition of HSV-1 or HSV-2. Oligonucleotides were used at 1 μg/ml or 10 μg/ml and the cells were incubated with the oligonucleotides for 30 seconds, 10 minutes or 24 hours. Viral titers were calculated as a percent of control titer generated by cells not treated with the oligonucleotides. The data are expressed as percent of control titer."}, "[1]": {"conditions": "150 μg IN Day 0 (30 min before RSV), lungs Day 4"}, "[2]": {"conditions": "150 μg IN Day −3, RSV Day 0, lungs Day 4"}, "[3]": {"conditions": "100 μg topical 2 h post-inoculation (PI)"}, "[4]": {"conditions": "100 μg topical 6 h post-inoculation (PI)"}},
  "data": [
    {"substance": "5′-TGACTGTGAACGTTCGAGATGA-3′ [SEQ ID NO: 1]", "values": [
      {"measurement": "RSV titer (log10/g lung) Mean", "setting": "RSV A2; [1]", "value": 3.9, "unit": "log10/g lung"},
      {"measurement": "RSV titer (log10/g lung) in CR No. 1", "setting": "RSV A2; [1]", "value": 4, "unit": "log10/g lung"},
      {"measurement": "RSV titer (log10/g lung) in CR No. 2", "setting": "RSV A2; [1]", "value": 4, "unit": "log10/g lung"},
      {"measurement": "RSV titer (log10/g lung) in CR No. 3", "setting": "RSV A2; [1]", "value": 4.5, "unit": "log10/g lung"},
      {"measurement": "RSV titer (log10/g lung) in CR No. 4", "setting": "RSV A2; [1]", "value": 3, "unit": "log10/g lung"},
      {"measurement": "RSV titer (log10/g lung) Mean", "setting": "RSV A2; [2]", "value": 2.8, "unit": "log10/g lung"},
      {"measurement": "RSV titer (log10/g lung) in CR No. 1", "setting": "RSV A2; [2]", "value": 3, "unit": "log10/g lung"},
      {"measurement": "RSV titer (log10/g lung) in CR No. 2", "setting": "RSV A2; [2]", "value": 3, "unit": "log10/g lung"},
      {"measurement": "RSV titer (log10/g lung) in CR No. 3", "setting": "RSV A2; [2]", "value": 2.5, "unit": "log10/g lung"},
      {"measurement": "RSV titer (log10/g lung) in CR No. 4", "setting": "RSV A2; [2]", "value": 2.5, "unit": "log10/g lung"},
      {"measurement": "Effect on RSV viral titer in infected tissue", "setting": "RSV A2; IN administration 3 days before infection", "value": "effective at reducing viral titers"},
      {"measurement": "Effect on RSV viral titer in infected tissue", "setting": "RSV A2; first IN administration on the day of infection", "value": "not effective"},
      {"measurement": "Overall effect on HSV2 disease (incidence, survival, time to symptoms and death)", "setting": "HSV-2 strain 186; 100 μg topical 2 or 6 hours after inoculation", "value": "decreased incidence (i.e., individuals showing symptoms of HSV2 infection), improved survival and delays in both appearance of symptoms and time to death"},
      {"measurement": "Incidence (%)", "setting": "HSV-2 strain 186; [3]", "value": 60, "unit": "%"},
      {"measurement": "Incidence (animals with symptoms/total)", "setting": "HSV-2 strain 186; [3]", "value": "9/15"},
      {"measurement": "Survival (%)", "setting": "HSV-2 strain 186; [3]", "value": 40, "unit": "%"},
      {"measurement": "Survival (survivors/total)", "setting": "HSV-2 strain 186; [3]", "value": "6/15"},
      {"measurement": "Time to Death", "setting": "HSV-2 strain 186; [3]", "value": 12, "unit": "days"},
      {"measurement": "Time to Symptoms", "setting": "HSV-2 strain 186; [3]", "value": 6.6, "unit": "days"},
      {"measurement": "Incidence (%)", "setting": "HSV-2 strain 186; [4]", "value": 80, "unit": "%"},
      {"measurement": "Survival (%)", "setting": "HSV-2 strain 186; [4]", "value": 27, "unit": "%"},
      {"measurement": "Survival (survivors/total)", "setting": "HSV-2 strain 186; [4]", "value": "4/15"},
      {"measurement": "Time to Death", "setting": "HSV-2 strain 186; [4]", "value": 10.6, "unit": "days"},
      {"measurement": "Time to Symptoms", "setting": "HSV-2 strain 186; [4]", "value": 5.75, "unit": "days"},
      {"measurement": "Change in average time to death", "setting": "HSV-2 strain 186; animals that died, treated two hours after infection", "value": "increased by an average of over two days"},
      {"measurement": "Frequency of recurrences (recurrent lesions)", "setting": "HSV-2 strain MS; 200 μg at 21 days PI (one group also days 42 and 63), ANOVA p=0.012", "value": "significant reduction in the frequency of recurrences"},
      {"measurement": "Effect on frequency of viral shedding", "setting": "HSV-2 strain MS; single topical treatment 1 mg at day 21", "value": "unaffected"},
      {"measurement": "Magnitude of viral shedding", "setting": "HSV-2 strain MS; single topical treatment 1 mg at day 21, vs control groups, p<0.001", "value": "significantly reduced"},
      {"measurement": "Cumulative mean recurrent lesion days", "setting": "HSV-2 strain MS; single topical treatment 1 mg at day 21, vs non-ISS control or untreated", "value": "significantly decreased the cumulative mean recurrent lesion days"},
      {"measurement": "Viral titer, percent of control titer", "setting": "HSV-2; cells pre-treated 1 μg/ml, 30 sec", "value": "101% of control titer"},
      {"measurement": "Viral titer, percent of control titer", "setting": "HSV-2; cells pre-treated 1 μg/ml, 10 min", "value": "98% of control titer"},
      {"measurement": "Viral titer, percent of control titer", "setting": "HSV-2; cells pre-treated 1 μg/ml, 24 hr", "value": "99% of control titer"},
      {"measurement": "Viral titer, percent of control titer", "setting": "HSV-2; cells pre-treated 10 μg/ml, 30 sec", "value": "101% of control titer"},
      {"measurement": "Viral titer, percent of control titer", "setting": "HSV-2; cells pre-treated 10 μg/ml, 10 min", "value": "101% of control titer"},
      {"measurement": "Viral titer, percent of control titer", "setting": "HSV-2; cells pre-treated 10 μg/ml, 24 hr", "value": "99% of control titer"}
    ]}
  ]
}
